# Measurements taken from paper PMC10465233, “Lys-urea-Aad, Lys-urea-Cmc and Lys-urea-Cms as potential pharmacophores for the design of PSMA-targeted radioligands to reduce off-target uptake in kidneys and salivary glands” (Theranostics, 2023).
# How the values were obtained:
# LNCaP tumor-bearing mice [1] = assay: Ex vivo biodistribution in LNCaP tumor-bearing mice; set-up: species or system mouse
# Description: (§1) Imaging, biodistribution and radioligand therapy experiments were performed following previously published procedures using male NOD-scid IL2Rg^null (NSG) or NOD.Cg-Rag1^tm1MomIl2rg^tm1Wjl/SzJ (NRG) mice [10]-[12],[14]-[15]. The experiments were conducted according to the guidelines established by the Canadian Council on Animal Care and approved by Animal Ethics Committee of the University of British Columbia. The mice were briefly sedated by inhalation of 2% isoflurane in oxygen, and implanted subcutaneously with 1×10^7 LNCaP cells behind the left shoulder. The mice were imaged or used in biodistribution studies when the tumor grew to 5-8 mm in diameter over a period of 4-5 weeks.
# For biodistribution studies, the mice were injected with the radioligand (2-4 MBq) as described above. For blocking, the mice were co-injected with nonradioactive DCFPyL (0.5 mg). At predetermined time points, the mice were sedated by isoflurane inhalation and euthanized by CO2 inhalation. Blood was withdrawn by cardiac puncture, and organs/tissues of interest were collected, weighed and counted using an automatic gamma counter (Tables S4-S7).
# [2] = Radiation dosimetry for major organs of 25-g mice (OLINDA, MOBY phantom); format: in vivo, mouse
# Description: Internal dosimetry estimates were calculated using the organ level internal dose assessment (OLINDA) software v.2.2 following our previously published procedures. These estimates were performed for the mouse using the 25g MOBY phantom, and for the tumors using the previously reported unit density sphere model. Both the phantom and the sphere model are available in OLINDA and require the input of the total number of decays normalized by injected activity in units of MBq×h/MBq for each of the source organ/tumor.
# The biodistribution data (available in Table S5-S7) were used to determine the kinetics input values required by OLINDA. First, each of the values was decayed to its corresponding time point (the values on the table are shown at injection time). Then the different time-points of the uptake data (%ID/g) for each organ were fitted to both mono-exponential (%ID/g = ae^⎯bt) and bi-exponential (%ID/g = ae^⎯bt + ce^⎯dt) functions using in-house software developed in Python. The best fit was selected based on maximizing the coefficient of determination (R^2) of the fit and minimizing the residuals. The areas under the curves were analytically calculated based on the parameters obtained from the best fit of each organ and this provided the kinetic input values required by OLINDA.
# In the mouse case, the adrenals, blood, fat, and muscle are not modeled in the phantom. These organs were grouped together and included in what OLINDA calls the remainder of the body. Lastly, the numbers of decays in the tumors were also calculated based on the biodistribution data of the mice and the values were inputted into the sphere model available in OLINDA.
# LNCaP tumor-bearing mice [3] = assay: Radioligand therapy study in LNCaP tumor-bearing mice; format: in vivo, mouse
# Description: as §1
# For radiotherapy study, tumor-bearing mice were injected with saline (the control group), [^177Lu]Lu-PSMA-617 (37 MBq) or [^177Lu]-HTK03170 (37, 18.5 and 9.3 MBq) (n = 7-8 per treatment group). Tumor size and body weight were measured twice a week from the date of injection (Day 0) until completion of the study (Day 180). Endpoint criteria were defined as > 20% weight loss, tumor volume > 1000 mm^3, or active ulceration of the tumor.
structure (smiles),measurement,setting,value
COc1ccc(CCCC(=O)NCC(=O)N[C@@H](CCCCNC(=O)CN2CCN(CC(=O)[O-])CCN(CC(=O)[O-])CCN(CC(=O)[O-])CC2)C(=O)NC[C@H]2CC[C@H](C(=O)N[C@@H](Cc3c4ccccc4cc4ccccc34)C(=O)NCCCC[C@H](NC(=O)N[C@@H](CCCC(=O)O)C(=O)O)C(=O)O)CC2)cc1.[177Lu+3] [[^177Lu]Lu-HTK03170],Tumor:Muscle uptake ratio,LNCaP tumor-bearing mice [1]; 24 h post-injection,736 ± 333
same,Tumor:Salivary gland uptake ratio,LNCaP tumor-bearing mice [1]; 24 h post-injection,202 ± 49.3
same,Adrenal glands uptake,LNCaP tumor-bearing mice [1]; 72 h post-injection,0.27 ± 0.11 %ID/g
same,Blood uptake,LNCaP tumor-bearing mice [1]; 72 h post-injection,0.06 ± 0.02 %ID/g
same,Blood:Salivary gland uptake ratio,LNCaP tumor-bearing mice [1]; 72 h post-injection,0.57 ± 0.17
same,Bone uptake,LNCaP tumor-bearing mice [1]; 72 h post-injection,0.03 ± 0.02 %ID/g
same,Brain uptake,LNCaP tumor-bearing mice [1]; 72 h post-injection,0.01 ± 0.00 %ID/g
same,Fat uptake,LNCaP tumor-bearing mice [1]; 72 h post-injection,0.04 ± 0.02 %ID/g
same,Heart uptake,LNCaP tumor-bearing mice [1]; 72 h post-injection,0.09 ± 0.03 %ID/g
same,Intestines uptake,LNCaP tumor-bearing mice [1]; 72 h post-injection,0.14 ± 0.11 %ID/g
same,Kidneys uptake,LNCaP tumor-bearing mice [1]; 72 h post-injection,2.56 ± 0.62 %ID/g
same,Lacrimal glands uptake,LNCaP tumor-bearing mice [1]; 72 h post-injection,0.01 ± 0.01 %ID/g
same,Liver uptake,LNCaP tumor-bearing mice [1]; 72 h post-injection,0.36 ± 0.13 %ID/g
same,Lungs uptake,LNCaP tumor-bearing mice [1]; 72 h post-injection,0.18 ± 0.04 %ID/g
same,Muscle uptake,LNCaP tumor-bearing mice [1]; 72 h post-injection,0.02 ± 0.01 %ID/g
same,Pancreas uptake,LNCaP tumor-bearing mice [1]; 72 h post-injection,0.04 ± 0.01 %ID/g
same,Salivary glands uptake,LNCaP tumor-bearing mice [1]; 72 h post-injection,0.11 ± 0.03 %ID/g
same,Spleen uptake,LNCaP tumor-bearing mice [1]; 72 h post-injection,0.38 ± 0.15 %ID/g
same,Stomach uptake,LNCaP tumor-bearing mice [1]; 72 h post-injection,0.28 ± 0.33 %ID/g
same,Testes uptake,LNCaP tumor-bearing mice [1]; 72 h post-injection,0.24 ± 0.04 %ID/g
same,Thyroid uptake,LNCaP tumor-bearing mice [1]; 72 h post-injection,0.15 ± 0.01 %ID/g
same,Tumor uptake,LNCaP tumor-bearing mice [1]; 72 h post-injection,59.3 ± 16.0 %ID/g
same,Tumor:Blood uptake ratio,LNCaP tumor-bearing mice [1]; 72 h post-injection,1029 ± 459
same,Tumor:Kidney uptake ratio,LNCaP tumor-bearing mice [1]; 72 h post-injection,24.0 ± 6.93
same,Tumor:Muscle uptake ratio,LNCaP tumor-bearing mice [1]; 72 h post-injection,3374 ± 1417
same,Tumor:Salivary gland uptake ratio,LNCaP tumor-bearing mice [1]; 72 h post-injection,566 ± 236
same,Adrenal glands uptake,LNCaP tumor-bearing mice [1]; 120 h post-injection,0.23 ± 0.18 %ID/g
same,Blood uptake,LNCaP tumor-bearing mice [1]; 120 h post-injection,0.02 ± 0.01 %ID/g
same,Blood:Salivary gland uptake ratio,LNCaP tumor-bearing mice [1]; 120 h post-injection,0.31 ± 0.06
same,Bone uptake,LNCaP tumor-bearing mice [1]; 120 h post-injection,0.02 ± 0.01 %ID/g
same,Fat uptake,LNCaP tumor-bearing mice [1]; 120 h post-injection,0.04 ± 0.03 %ID/g
same,Heart uptake,LNCaP tumor-bearing mice [1]; 120 h post-injection,0.05 ± 0.02 %ID/g
same,Intestines uptake,LNCaP tumor-bearing mice [1]; 120 h post-injection,0.05 ± 0.06 %ID/g
same,Kidneys uptake,LNCaP tumor-bearing mice [1]; 120 h post-injection,1.48 ± 0.44 %ID/g
same,Liver uptake,LNCaP tumor-bearing mice [1]; 120 h post-injection,0.26 ± 0.11 %ID/g
same,Lungs uptake,LNCaP tumor-bearing mice [1]; 120 h post-injection,0.07 ± 0.02 %ID/g
same,Muscle uptake,LNCaP tumor-bearing mice [1]; 120 h post-injection,0.01 ± 0.01 %ID/g
same,Pancreas uptake,LNCaP tumor-bearing mice [1]; 120 h post-injection,0.02 ± 0.02 %ID/g
same,Salivary glands uptake,LNCaP tumor-bearing mice [1]; 120 h post-injection,0.05 ± 0.03 %ID/g
same,Spleen uptake,LNCaP tumor-bearing mice [1]; 120 h post-injection,0.53 ± 0.35 %ID/g
same,Stomach uptake,LNCaP tumor-bearing mice [1]; 120 h post-injection,0.08 ± 0.15 %ID/g
same,Testes uptake,LNCaP tumor-bearing mice [1]; 120 h post-injection,0.16 ± 0.04 %ID/g
same,Thyroid uptake,LNCaP tumor-bearing mice [1]; 120 h post-injection,0.09 ± 0.04 %ID/g
same,Tumor uptake,LNCaP tumor-bearing mice [1]; 120 h post-injection,71.9 ± 19.4 %ID/g
same,Tumor:Blood uptake ratio,LNCaP tumor-bearing mice [1]; 120 h post-injection,3996 ± 2182
same,Tumor:Kidney uptake ratio,LNCaP tumor-bearing mice [1]; 120 h post-injection,46.4 ± 21.3
same,Tumor:Muscle uptake ratio,LNCaP tumor-bearing mice [1]; 120 h post-injection,12778 ± 19955
same,Tumor:Salivary gland uptake ratio,LNCaP tumor-bearing mice [1]; 120 h post-injection,1167 ± 531
same,Peaked tumor uptake relative to ^68Ga-labeled non-albumin-binder analog,"LNCaP tumor-bearing mice [1]; mouse, in vivo",~ 3 fold
same,Peaked average tumor uptake,LNCaP tumor-bearing mice [1]; peak over 1-120 h post-injection,~ 60 %ID/g
same,Time of peak tumor uptake,"LNCaP tumor-bearing mice [1]; post-injection, listed as 177Lu-labeled HTK03170",4 to 24 h
same,Kinetics value,[2]; source organ Brain,2.55E-02 MBq-h/MBq
same,Kinetics value,[2]; source organ Cortical bone,1.91E-01 MBq-h/MBq
same,Kinetics value,[2]; source organ Heart,7.94E-02 MBq-h/MBq
same,Kinetics value,[2]; source organ Kidneys,1.33E+00 MBq-h/MBq
same,Kinetics value,[2]; source organ Large intestine contents,1.12E-01 MBq-h/MBq
same,Kinetics value,[2]; source organ Liver,1.24E+00 MBq-h/MBq
same,Kinetics value,[2]; source organ Lungs,6.60E-02 MBq-h/MBq
same,Kinetics value,[2]; source organ Pancreas,4.12E-02 MBq-h/MBq
same,Kinetics value,[2]; source organ Remainder of the body,4.23E+00 MBq-h/MBq
same,Kinetics value,[2]; source organ Small intestine,3.35E-01 MBq-h/MBq
same,Kinetics value,[2]; source organ Spleen,1.04E-01 MBq-h/MBq
same,Kinetics value,[2]; source organ Stomach,1.32E-02 MBq-h/MBq
same,Kinetics value,[2]; source organ Testes,9.21E-02 MBq-h/MBq
same,Kinetics value,[2]; source organ Thyroid,5.15E-03 MBq-h/MBq
same,Kinetics value,[2]; source organ Urinary bladder,1.11E+00 MBq-h/MBq
same,Median survival,LNCaP tumor-bearing mice [3]; 9.3 MBq injected,90 days
same,Median survival,LNCaP tumor-bearing mice [3]; 18.5 MBq injected,131 days
same,Body weight of the treated mice,LNCaP tumor-bearing mice [3]; 37 MBq injected,continuously increasing body weight
same,Median survival,LNCaP tumor-bearing mice [3]; 37 MBq injected,> 180 days
